These results are taken from patent US12673039B2, “Methods of inducing autophagy using coumarin derivatives and related compounds” (Buck Institute for Research on Aging, priority 2019, dated 2026).

For the assay, the system named is TSC1+/− human neuronal SH-SY5Y cells. Briefly: TAU, phosphorylated-TAU, insoluble tau and viability in TSC1 mutant SH-SY5Y neuronal cells. The format is cell-based. How it is done:
FIG. 8 A) Representative Western blot analysis of detergent-insoluble tau levels in control versus three independent TSC1-mutant SY5Y cell lines (A1, A3, A3A9) treated with 10 μM C1 (AIC106) versus vehicle. FIG. 8B) Quantitation of insoluble tau levels in control (Emty) versus mutant TSC1 lines treated with C1 (AIC106) versus vehicle (−). Values represent fold change versus vehicle-treated controls, *p<0.01.
FIG. 23, panels A-H: FXR modulation enhances HLH-30 expression in human neuronal SH-SY5Y cells. Panel A) Effects of AIC106 on human FXR activity was determined in a mammalian one-hybrid based kit assay by quantifying changes in the luciferase activity of FXR ligand (GW4064, GW) induced treatment. [N=3 independent experiments (mean±SD). ****p<0.0001, by one-way ANOVA with Tukey's multiple comparisons test]. Panel B) Protein expression of TFEB, cathepsin-D (CAT-D) and small heterodimer partner-1 (SHP-1) was determined by immunoblot in neuronal SH-SY5Y cells post-24 hours of treatment with AIC106 and DMSO-control. Panel C) AIC106 enhances autophagic flux in neuronal SH-SY5Y cells. Autophagic flux in DMSO-control and AIC106 treated neuronal cells was determined by quantifying levels of autophagosome specific LC3-II protein both in presence and absence of autophagy inhibitor bafliomycin A1 (Baf A, 10 nM). Panel D) Relative fold change in the band intensity of LC3-II protein, normalized to loading control actin. Values are relative to DMSO-control. [N=3 independent experiments (mean±SD). *p<0.05 and ****p<0.0001, by one-way ANOVA with Tukey's multiple comparisons test]. Panel E) Effects of AIC106 treatment for 72 hours on basal TAU and phosphorylated-TAU in differentiated human neuronal SH-SHY5Y and heterozygous TSC1(+/−) mutant SH-SY5Y neuronal cells were quantitated by immunoblotting following total protein extraction. Relative fold change in the band intensity compared to SH-SY5Y control treatment for (panel F) total TAU and (panel G) phosphorylated-TAU, normalized to loading control GAPDH. [N=3 independent experiments (mean±SD). *p<0.05 and **p<0.01, by one-way ANOVA with Sidak's multiple comparisons test]. Panel H) AIC106 treatment improves viability and health of differentiated SH-SY5Y-TSC1(+/−) neuronal cells. Images were taken post-96 hours after treatment of differentiated neuronal cells with AIC106.
The rat dopaminergic cell line 1RB3AN27 (N27) was grown in RPMI 1640 medium supplemented with 10% fetal calf serum (Invitrogen), 100 U/ml penicillin, and 100 μg/ml streptomycin. SH-SY5Y TSC1+/− lines were generated as described previously (Olney et al., 2017). […]

[1] abbreviates: TSC1+/− SH-SY5Y cells, 72 hours.

`O=c1oc2c3c4c(cc2c2c1CCC2)CCCN4CCC3` [C1, 2,3,6,7,10,11-Hexahydro-1H,5H-cyclopenta(3,4)(1)benzopyrano(6,7,8-ij)quinolizin-12(9H)-one]: under setting [1], the TAU levels result was “without significantly changing TAU levels” and the phosphorylated-TAU entry is recorded as “decrease of phosphorylated-TAU”. In addition, where the note is “TSC1-mutant SY5Y cell lines, 10 μM C1 (FIG. 8)”, the insoluble tau levels result is “reduce levels of insoluble tau levels”. Further, the “viability and general health of differentiated cells” value (differentiated TSC1+/− SH-SY5Y cells, 96 hours) is recorded as “prevented loss in viability”.
